Data: patent US10322143B2, “Inhibitors of ADAMTS4 or ADAMTS5 for use in preventing or treating cardiac remodeling and chronic heart failure” (Universitetet i Oslo, priority 2013, dated 2019)

Experiments:
[1] = system: versican; experiment: Versican DPEEAE fragments and full-length versican in myocardial ECM fractions (immunoblotting), aortic banding rats; format: in vivo, rat
Protocol: (§1) Three days after AB, rats were stratified by the gradient over the stenosis to ensure similar degree of cardiac stress. Two and two stratified rats were randomized to either 6 mg/kg of the sulfated polysaccharide sodium pentosan polysulfate (PPS) (Interfarm AS, Norway) or vehicle (0.9% NaCl) injected subcutaneously every third day. […] Six weeks after AB or sham operation, the rats were examined by echocardiography and postmortem analysis, performed by experienced investigators (IS, JMA) blinded to treatment group.
Proteins from rat myocardium were extracted as previously described (Didangelos et al. J Biol Chem 2012. 287(23):19341-5). Briefly, proteins were separated into three fractions; NaCl-soluble extracellular proteins (NaCl-ECM) and guanidine-soluble extracellular proteins (G-ECM), containing the fluid and matrix compartment of ECM respectively, in addition to cellular and cell-linked proteins dissolvable in SDS (SDS-samples) (FIG. 6D). NaCl-ECM and G-ECM were deglycosylated to remove GAG chains using 4 mU/NaCl-sample and 12 mU/G-sample of Chondroitinase ABC (from Proteus vulgaris, G3667, Sigma-Aldrich, MO) and 5 mU/NaCl-sample and 15 mU/G-sample of keratanase (endo-β-galactosidase from Bacteroides fragilis, G6920, Sigma-Aldrich), as previously described (Didangelos A et al. supra).
Protein concentrations were measured using the Micro BCA Protein Assay Kit (Pierce/Thermo Scientific, IL). Sample buffer was mixed with 5-25 μg (G-samples) or 30 μg (NaCl and SDS samples) of the protein lysate, denatured at 96° C. for 10 min, and run on 1.5 mm 4-12% Bis-Tris gradient gels (Nupage, Invitrogen, CA), with MOPS SDS running buffer until the 37 kDa protein marker reached the bottom of the gel. All protein extracts were loaded blinded to group.
SDS-PAGE and immunoblotting was performed as described in the Criterion BioRad protocol, using polyvinylidene fluoride (PVDF) membranes (GE Healthcare Life Sciences, Uppsala, Sweden). Blots were developed using the ECL Plus Western Blotting Detection System (GE Healthcare) and visualized in the Las-4000 mini from Fujifilm (Japan). Before reprobing, stripping was performed using the Restore Western Blot Stripping Buffer (21059, Thermo Scientific, IL). […]
Membranes were blocked in 5% non-fat dry-milk (170-6404, BioRad) overnight. […] Primary antibodies used were against ADAMTS4 (PA1-1750, Thermo Pierce Scientific, IL), versican full length (sc-25831, Santa Cruz Biotechnology, CA) and versican fragments displaying the neo-epitope DPEEAE (ab19345, Abcam, Cambrigde, UK) resulting from ADAMTS cleavage by ADAMTS1/4 (Sandy J D et al. J Biol Chem 2001. 276(16):13372-8; Didangelos A et al. supra), and quantified by ImageJ.

[2] = system: ADAMTS4 mRNA; experiment: Myocardial ADAMTS4 mRNA expression (qRT-PCR) in aortic banding rats; format: in vivo, rat; conditions: AB-rats treated with PPS, left ventricle, six weeks after AB; normalized to RPL4, relative to vehicle-treated sham; median (interquartile range)
Protocol: as §1
In addition, mRNA levels of proteins known to modulate ADAMTS activity or versican function were measured; tissue inhibitor of metalloprotease (TIMP)-3, hyaluronic acid (HA) synthase 1 and 2, and membrane-type (MT)4-MMP, while mRNA levels of ADAMTS1, -4, and versican were quantified in NFB and NCM.
Total RNA was isolated from the left ventricle in AB rats, neonatal rat cardiomyocytes and fibroblasts (RNeasy mini kit, Qiagen, Valencia, Calif.). […] The results were detected on an ABI PRISM 7900 Sequence Detection System (Applied Biosystems, CA).

[3] = PPS-treated AB-rats, normalized to control, median (interquartile range)

pentosan polysulfate [PPS]
change of p150 versican in NaCl-ECM compared to vehicle-treated AB-rats ([1]; PPS-treated AB-rats vs vehicle-treated AB-rats, p=0.05): halved
level of full-length versican (p400) in G-ECM [1, 3]: 1.17 (0.77-6.85)
level of p150 versican DPEEAE fragment in NaCl-ECM [1, 3]: 1.08 (0.69-1.63)
p70 versican fragment level in G-ECM ([1]; PPS-treated sham, normalized to control, median (interquartile range)): 0.34 (0.28-0.61)
ADAMTS4 mRNA level [2]: 1.29 (1.00-6.45)
